Values joined by “and” are separate entries in the source; they are usually repeats but may differ in a detail not shown here. Equal entries are not always repeated. Where two headings read alike, the source gives them in different places.
Legend:
MRC-5 normal lung cells = test: MTT cell viability assay, MRC-5 normal lung cells; type: cell-based, human; settings: read-out: IC50 (Mean ± SEM; μM) MRC-5 (Normal)
Procedure: (§1) Benzofurane scaffold, piperazine ring, and urea function are relevant privileged structures present not only in anticancer drugs against breast cancer but also against other types of cancer, such as lung cancer, hepatocarcinoma, and gastric cancer. […] MRC-5 normal lung cells and A549 lung cancer cells were exposed to compounds 31, 32, 35, 37, and cisplatin (a common drug used to treat lung cancer) for 72 h, and cell viability was measured using the MTT assay (Figure 10 and Table 3). Compounds 35 and 37 also had high selectivity for A549 cancer cells.
(§2) Exponentially growing cells were seeded into 96-well plates, and drugs were added 24 h later. Each compound was dissolved with DMSO (Panreac Applichem) to prepare a stock solution (100 mM). The working solutions of specific concentrations were prepared via the dilution of the stock solutions in the culture medium and were immediately used to treat the cells. The remaining stock solutions were aliquoted and frozen at −40 °C. We used different aliquots in each independent experiment to avoid the freeze–thaw cycles. Cells were exposed to the drugs for 72 h. After these 72 h, cell viability was determined with the MTT assay or the resazurin assay. These assays are colorimetric techniques that are widely used to determine cell viability.
(§3) The MTT assay is based on the capability of viable cells to transform the MTT salt into a purple formazan dye. After an incubation period of the cells with the MTT and a solubilization step, the quantity of the colored product is measured with a plate reading spectrophotometer. […] The quantity of formazan produced is presumably proportional to the number of viable cells. After seeding for 24 h, cells were treated with the tested drugs for 72 h. Then, medium was removed, and 125 μL of MTT (1 mg/mL in medium) was added to each well for 3–4 h. Subsequently, 80 μL of 20% sodium dodecyl sulfate (Panreac Applichem) in 20 mM hydrochloric acid (Panreac Applichem) was added to dissolve the insoluble purple formazan product, plates were incubated for 10 h at 37 °C, and optical densities were measured at 540 nm on a multiwell plate spectrophotometer reader.
(§4) In both assays, cell viability was expressed as percentage in relation to controls. All data were averaged from at least two independent experiments and were expressed as mean ± standard error of the mean (SEM). Selectivity indices (SI) were calculated by dividing the IC50 values in the nonmalignant cells by those in the cancer cells.

A549 lung cancer cells = test: MTT cell viability assay, A549 lung cancer cells; type: cell-based, human; settings: for IC50: 72 h exposure, MTT assay, read-out: IC50 (Mean ± SEM; μM) A549 (Cancer); for Selectivity Index: IC50 MRC-5 divided by IC50 A549, 72 h, MTT
Procedure: as §1, §2, §3, §4

[1] = tested on: MCF 10A human normal breast cells; test: MTT cell viability assay, MCF 10A normal breast cells; type: cell-based; settings: 72 h exposure, read-out: IC50 (Mean ± SEM; μM) MCF 10A (Normal)
Procedure: (§5) To evaluate the cytotoxicity of our compounds against cancer cells, they were evaluated in vitro against MCF7 human breast cancer cells. To examine the selectivity of our compounds, they were also studied against MCF 10A human normal cells. Both cell lines were exposed to different concentrations of our compounds for 72 h before measuring cell viability with the 3-(4,5-dimethylthiazol-2-yl)-2,5-diphenyltetrazolium bromide (MTT) assay (for conditions of the MTT assay, see the Experimental Part, Section 3). Docetaxel, an anticancer drug used in clinics, was tested under the same experimental conditions. Data were obtained from at least two independent experiments and were expressed as means ± standard error of means (SEM). The half-maximal inhibitory concentration (IC50) value of each compound was calculated, and the results are collected in Table 2. To evaluate the selective activity of our compounds, the selectivity index (SI) was also calculated. The curves of cell viability of MCF7 cancer cells and MCF 10A normal cells after the treatment with our compounds are shown (Figure 5, Figure 6, Figure 7, Figure 8 and Figure 9 and Figures S1–S4).
as §2, §3, §4

A549 cells = test: Resazurin cell viability assay, A549 cancer cells; type: cell-based, human; settings: for IC50: Homo sapiens
Description: (§6) One key limitation of most anticancer drugs is that they not only target cancer cells but also affect nonmalignant cells with high division rates. This can induce numerous adverse effects, such as severe nausea and vomiting, hair loss, diarrhea, mouth sores, anemia, erythematous eruptions, etc. For example, skin cells, which are constantly renewing themselves, are often damaged by antimetabolites or alkylating agents. This can lead to painful erythematous eruptions. […] These cells are derived from normal adult tissue and have a division rate similar to that of cancer cells. A549 cells and HaCaT cells were exposed to various concentrations of 31, 32, 35, 37, or gemcitabine (a common antimetabolite used to treat cancer) for 72 h. Cell viability was determined with the resazurin assay. Subsequently, the cells were allowed to grow in a drug-free medium for another 72 h. This was performed to test their survival and proliferation ability after the removal of the compounds. Cell viability was again measured with the resazurin assay. […] It should be mentioned that cells exposed to high concentrations of compounds above 100 μM were unable to recover after treatment.
as §2
(§7) The resazurin assay measures the ability of viable cells to transform the blue compound resazurin into the pink compound resorufin. There is a direct correlation between the reduction in resazurin and the number of viable cells. After seeding for 24 h, cells were exposed to several concentrations of compounds. After a 72 h treatment period, the cells were washed once with a phosphate-buffered saline (PBS, biowest), and 150 μL of resazurin (20 μg/mL in the medium) was added to each well. The plates were then incubated for 4–5 h at 37 °C, 5% CO2, and optical densities were measured at 540 nm and 620 nm using a multiwell plate spectrophotometer reader (Imark Bio Rad Laboratories Inc., Hercules, CA, USA). Subsequently, cells were washed once with PBS and allowed to grow for an additional 72 h in drug-free medium to allow them to recuperate from possible damage induced by the tested compounds. After the treatment period, cell viability was measured following the same protocol described above.
as §4

[2] = tested on: MCF7 human breast cancer cells; test: MTT cell viability assay, MCF7 breast cancer cells; type: cell-based; settings: for IC50: 72 h exposure, MTT assay, read-out: IC50 (Mean ± SEM; μM) MCF7 (Cancer); for Selectivity Index: IC50 MCF 10A divided by IC50 MCF7, 72 h, MTT
Procedure: as §5, §2, §3, §4

HaCaT cells = test: Resazurin cell viability assay, HaCaT nonmalignant cells; type: cell-based; settings: Homo sapiens; for IC50: 72 h; for CC50: 144 h
Description: as §6, §2, §7, §4

[3] = A549, 72 h, 72 h Treatment, resazurin assay, read-out: IC50 (Mean ± SEM; μM) A549 (Cancer)
[4] = A549, 144 h, 72 h Treatment + 72 h Recovery Period, resazurin assay, read-out: IC50 (Mean ± SEM; μM) A549 (Cancer)
[5] = IC50 HaCaT divided by IC50 A549, 72 h Treatment, resazurin
[6] = Homo sapiens, MRC5, 72 h exposure
[7] = 72 h Treatment, resazurin assay, read-out: IC50 (Mean ± SEM; μM) HaCaT (Nonmalignant)
[8] = 72 h Treatment + 72 h Recovery Period, resazurin assay, read-out: IC50 (Mean ± SEM; μM) HaCaT (Nonmalignant)
[9] = IC50 HaCaT divided by IC50 A549, 72 h Treatment + 72 h Recovery Period, resazurin

| Compound | IC50 (A549 cells; [3]) [µM] | IC50 (A549 cells; [4]) [µM] | IC50 [2] [µM] | IC50 ([2]; Homo sapiens, MCF7, 72 h) [µM] | IC50 (A549 lung cancer cells; Homo sapiens, A549) [µM] | IC50 (A549 cells; A549, 72 h, gemcitabine line in nM, 72 h Treatment + 72 h Recovery Period, resazurin, read-out: IC50 (Mean ± SEM) A549 (Cancer)) [µM] | IC50 (A549 cells; A549, 72 h, gemcitabine line in nM, 72 h Treatment, resazurin, read-out: IC50 (Mean ± SEM) A549 (Cancer)) [µM] | IC50 (MRC-5 normal lung cells; 72 h exposure) [µM] | IC50 (A549 lung cancer cells) [µM] | Selectivity Index (A549 lung cancer cells) | IC50 [1] [µM] | Selectivity Index (A549 cells; [5]) | Selectivity Index [2] | IC50 (MRC-5 normal lung cells; [6]) [µM] | IC50 (HaCaT cells; [7]) [µM] | CC50 (HaCaT cells; [8]) [µM] | Selectivity Index (A549 cells; [9]) | IC50 (HaCaT cells; gemcitabine line in nM, 72 h Treatment + 72 h Recovery Period, resazurin, read-out: IC50 (Mean ± SEM) HaCaT (Nonmalignant)) [µM] | IC50 (HaCaT cells; gemcitabine line in nM, 72 h Treatment, resazurin, read-out: IC50 (Mean ± SEM) HaCaT (Nonmalignant)) [µM] |
| --- | --- | --- | --- | --- | --- | --- | --- | --- | --- | --- | --- | --- | --- | --- | --- | --- | --- | --- | --- |
| N.N.[Cl][Pt][Cl] [Cisplatin, reference compound] |  |  |  |  |  |  |  | 31.8 ± 5.6 | 8.2 ± 2.2 | 6.3 ± 1.8 |  |  |  |  |  |  |  |  |  |
| CC(C)(C)OC(=O)N1CCN(C(=O)Nc2cc(C(F)(F)F)ccc2Cl)C(c2ccccc2)C1 (stereo not drawn) [Compound 31] | 17 ± 1.6 | 17.8 ± 2 | 18.6 ± 4.2 | < 20 | 4.8 ± 0.8 |  |  |  |  | 2.1 ± 0.3 | 298 ± 56.4 | 0.8 ± 0.2 | > 10 and 16.6 ± 1.9 | 14.2 ± 0.5 | 14.5 ± 3.2 | 30.9 ± 7.5 |  |  |  |
| CC(C)(C)OC(=O)N1CCN(C(=O)Nc2ccc(Cl)c(C(F)(F)F)c2)C(c2ccccc2)C1 (stereo not drawn) [Compound 32] | 6.2 ± 0.6 | 13.6 ± 0.1 |  |  | 5.2 ± 0.4 |  |  |  |  | 1.0 ± 0.1 | 34.1 ± 2.2 | 1.1 ± 0.1 | 12.6 ± 2.6 | 4.3 ± 0.2 | 6.7 ± 0.8 | 14.9 ± 1.3 | 1.1 ± 0.1 |  |  |
| O=C(c1cc2ccccc2o1)N1CCN(C(=O)Nc2ccc([N+](=O)[O-])cc2)C(c2ccccc2)C1 (stereo not drawn) [Compound 35] | 28.4 ± 7.3 | 69.3 ± 20.2 |  | 23 ± 3.8 | 25.6 ± 2.9 |  |  |  |  | 6.5 ± 2.1 | 244 ± 24.9 | 1.6 ± 0.2 | 11.1 ± 2.9 | 165 ± 4.1 | 41.6 ± 8.1 | 97.5 ± 16.2 |  |  |  |

Continued, in another order:

| IC50 (A549 cells; [3]) [µM] | IC50 (A549 cells; [4]) [µM] | IC50 [2] [µM] | IC50 ([2]; Homo sapiens, MCF7, 72 h) [µM] | IC50 (A549 lung cancer cells; Homo sapiens, A549) [µM] | IC50 (A549 cells; A549, 72 h, gemcitabine line in nM, 72 h Treatment + 72 h Recovery Period, resazurin, read-out: IC50 (Mean ± SEM) A549 (Cancer)) [µM] | IC50 (A549 cells; A549, 72 h, gemcitabine line in nM, 72 h Treatment, resazurin, read-out: IC50 (Mean ± SEM) A549 (Cancer)) [µM] | Compound | IC50 (MRC-5 normal lung cells; 72 h exposure) [µM] | IC50 (A549 lung cancer cells) [µM] | Selectivity Index (A549 lung cancer cells) | IC50 [1] [µM] | Selectivity Index (A549 cells; [5]) | Selectivity Index [2] | IC50 (MRC-5 normal lung cells; [6]) [µM] | IC50 (HaCaT cells; [7]) [µM] | CC50 (HaCaT cells; [8]) [µM] | Selectivity Index (A549 cells; [9]) | IC50 (HaCaT cells; gemcitabine line in nM, 72 h Treatment + 72 h Recovery Period, resazurin, read-out: IC50 (Mean ± SEM) HaCaT (Nonmalignant)) [µM] | IC50 (HaCaT cells; gemcitabine line in nM, 72 h Treatment, resazurin, read-out: IC50 (Mean ± SEM) HaCaT (Nonmalignant)) [µM] |
| --- | --- | --- | --- | --- | --- | --- | --- | --- | --- | --- | --- | --- | --- | --- | --- | --- | --- | --- | --- |
| 22.5 ± 2.7 | 41.6 ± 8.9 |  | 57.1 ± 34.7 | 18.7 ± 2.7 |  |  | N#Cc1ccc(NC(=O)N2CCN(C(=O)c3cc4ccccc4o3)CC2c2ccccc2)cc1 (stereo not drawn) [Compound 37] |  |  | 12.8 ± 1.6 | 484 ± 233 | 1.1 ± 0.1 | > 10 | 236 ± 5.4 | 24.8 ± 1.8 | 64.6 ± 6.8 |  |  |  |
|  |  |  |  |  | 0.0093 ± 0.007 | 0.0035 ± 0.0008 | Nc1ccn([C@@H]2O[C@H](CO)[C@@H](O)C2(F)F)c(=O)n1 [Gemcitabine, reference compound] |  |  |  |  | 3.3 ± 1.4 |  |  |  |  | 1.0 ± 0.1 | 0.0088 ± 0.0065 | 0.0131 ± 0.0062 |

Source: PMC10706865, “Repurposing Study of 4-Acyl-1-phenylaminocarbonyl-2-substituted-piperazine Derivatives as Potential Anticancer Agents—In Vitro Evaluation against Breast Cancer Cells” (International Journal of Molecular Sciences, 2023)
